Entries after “also recorded” stand apart in the source; their conditions may differ. Where two headings read alike, the source gives them in different places.
Experiments:
SK-MEL-5 cells [1] = assay: ABC transporter RNA (RT-qPCR) following drug treatment; type: cell-based, human; details: 24 hr. drug exposure, GHR-siRNA vs scr-siRNA transfected
Experimental: (§1) Transfection was performed using siLentFect lipid reagent (Biorad #170-3360, Hercules, Calif.) following the manufacturer's protocol. […] Media was changed after 24 hours. RNA levels were analyzed 48 hours post transfection while protein levels were analyzed at 60 hours post-transfection. For drug treatment, drugs at the specified concentrations noted above were added to the cells 48 hours post-transfection and treated for 24 hours prior to quantitation of RNA expressions.
(§2) RNA extraction, RT-qPCR, and protein extraction were performed as described in Example 1, above.

MALME-3M cells [2] = assay: as above; type: cell-based, human; details: for Efflux Pumps (expression level change, p < 0.05): ABC-transporter pumps with significantly down-regulated RNA expressions: 24 hr. drug exposure, GHR-siRNA vs scr-siRNA transfected
Experimental: as §1, §2

SK-MEL-28 cells [3] = assay: as above; type: cell-based, human; details: for Efflux Pumps (expression level change, p < 0.05): ABC-transporter pumps with significantly down-regulated RNA expressions: 24 hr. drug exposure, GHR-siRNA vs scr-siRNA transfected
Experimental: as §1, §2

MDA-MB-435 cells [4] = assay: as above; type: cell-based, human; details: 24 hr. drug exposure, GHR-siRNA vs scr-siRNA transfected
Experimental: as §1, §2

MDA-MB-435 cells [5] = assay: as above; type: cell-based, human; details: 24 hr sub-EC50 drug, 50 ng/mL hGH
SK-MEL-5 cells [6] = assay: as above; type: cell-based, human
four melanoma cell lines = assay: Cell proliferation / EC50 determination; details: read-out: EC50 ranges for the four melanoma cell lines
Experimental: (§4) A 1% (w/v) resazurin (Sigma-Aldrich #R7017) solution in 1× PBS was made and filter-sterilized. The final concentration of resazurin in the assay was 0.004%. Inside the proliferating cells, mildly fluorescent blue resazurin is reduced to a bright pink fluorescent product called resorufin (stable for 4 hours), which allows for a quantitative measure of the percentage of proliferating cells. In all cases, cells were incubated at 37° C. in 5% CO2 for 45-60 min. for adequate sensitivity of detection. Briefly, cells were seeded at 10,000 cells/cm^2 into 96-well plates and transfected as described above. The resazurin assay was performed 60 hours after transfection (unless specified otherwise) and resorufin absorbance was measured at 570 nm (reference wavelength=600 nm) using Spectramax250 (Molecular Devices, Sunnyvale, Calif.) and SoftmaxPro software.
More specifically, SK-MEL-28 cells (FIG. 8A, panel 1), MALME-3M cells (FIG. 8A, panel 2), MDA-MB-435 cells (FIG. 8A, panel 3), and SK-MEL-5 cells (FIG. 8A, panel 4) were treated with increasing doses of hGH for 48 hr. and cell proliferation was estimated using a resazurin-based metabolic assay.
For treatment of melanoma cells, the following five anti-tumor compounds were obtained from the sources mentioned: cisplatin (Calbiochem #232120, Darmstadt, Germany), doxorubicin (Sigma Aldrich #D-1515, St. Louis, Mo.), oridonin (Sigma-Aldrich #O-9639, St. Louis, Mo.), Paclitaxel (Sigma-Aldrich #C-7191), and vemurafenib/PLX4032 (ApexBio #A-3004, Houston, Tex.). […] In the subsequent experiments, the following drug concentrations were used unless specified otherwise: cisplatin (0.5 μM), doxorubicin (10 nM), oridonin (0.5 μM), paclitaxel (1 nM), vemurafenib (2 nM). Treatments were performed for 24 hours starting 48 hours post-transfection with siRNA.

SK-MEL-28 cells [7] = assay: EC50 of doxorubicin (cell viability); type: cell-based; details: Homo sapiens, Example 3, read-out: EC50 of doxorubicin against SK-MEL-28 cells
Experimental: Cell viability, following treatments, was performed using Invitrogen's PrestoBlue cell viability assay system. As described previously, it is a resazurin based assay which is reduced to resorufin (absorption at 570 nm) by the reducing environment of metabolically viable cells. It was performed in a 96-well system as described previously.

SK-MEL-28 cells [8] = assay: RT-qPCR time course after doxorubicin addition; type: cell-based, human; details: 188 nM doxorubicin
Experimental: (§3) Following treatments, cells were lysed, and RNA extraction was performed using IBI Tri-isolate kit (IBI), following manufacturer's protocol. RT-qPCR was performed as described previously.

SK-MEL-28 cells [9] = assay: Cell proliferation (resazurin) assay; type: cell-based; details: Homo sapiens, EC50 levels (cisplatin 10 μM, paclitaxel 5 nM), 24 hr, with and without siRNA mediated KD of GHR
Experimental: as §4

MALME-3M cells [10] = assay: Cell proliferation (resazurin) assay; type: cell-based, human; details: Homo sapiens, EC50 levels (cisplatin 10 μM, paclitaxel 5 nM), 24 hr, with and without siRNA mediated KD of GHR
Experimental: For hGH treatment, 16 hours after seeding (or 24 hours post-transfection), the cells were serum-starved for 2 hours in serum-free growth media, and hGH (phosphate buffered saline was used as control where applicable) was added at the noted concentrations (0-, 5-, 50-, and 150 ng/ml). Cells were subsequently incubated for 24 hours before evaluating RNA levels. Recombinant hGH was purchased from Antibodies Online (#ABIN2017921, Atlanta, Ga.).
On the other hand, a pronounced drop in proliferation levels in all the cell lines was seen when GHR was knocked down. […] Cell proliferation was estimated using resazurin-based metabolic assay. […] Averages of at least four independent experiments performed in quadruplicate were taken [*, p<0.05, Students t-test]. The results may indicate that human melanoma cells utilize GH-GHR interaction to drive aggressive tumor phenotypes.
To determine this, and referring now to FIGS. 35A-35D, changes in amounts of calcein retained inside cells following treatment with calcein-AM ester was analyzed by the fluorescence readout from intracellular calcein. Increased abundance of transporter pumps is reflected by decreased levels of intracellular calcein. […] Assays were performed 48 hr. post-transfection with either scr-siRNA or GHR-siRNA. […] SK-MEL-28 (FIG. 35C) and MALME-3M (FIG. 35D) cells were exposed to DMSO (vehicle), or 10 um cisplatin (Cis), or 5 nM paclitaxel (Pac) for 24 hr. Treatments were done 48 hr. post-transfection with either scr-siRNA (scr) or GHR-siRNA (GHR). Mean of three independent experiments performed in triplicate was taken. [*, p<0.05, Students t test, n=3]

[11] = system: B16F10 mouse melanoma cells; assay: ABC-transporter RNA in bGH treated cells (RT-qPCR); type: cell-based
Experimental: as §3
GH upregulates ABC-transporter expression in mouse melanoma B16F10 cells in vitro and in vivo: B16F10 mouse melanoma cells were treated with 50 or 500 ng/mL bGH for 6, 24, 48 or 72 hr and the changes in the RNA levels of specific multidrug exporter pumps were analyzed over time and GH dose. […] RNA extracted from B16F10 tumors grown in GHRKO or bGH mice were analyzed for the above ABC-transporters. In bGH mice, the tumor cells and resulting tumors were exposed in vivo to high endogenous GH and high IGF-1; while in GHRKO mice, the tumor cells and resulting tumors were exposed in vivo to high GH but low IGF1.

[12] = 24-hour drug, presence vs absence of 50 ng/mL GH
[13] = 24 hr sub-EC50 drug, 50 ng/mL hGH

N.N.[Cl][Pt][Cl] [cisplatin]
Efflux Pumps (expression level change, p < 0.05): ABC-transporter pumps with significantly down-regulated RNA expressions (SK-MEL-5 cells [1]): ABCB1, ABCC1, ABCC2, ABCG2
ABCB8 RNA expression on drug exposure in presence of GH (MALME-3M cells [2]; [12]): increase
Efflux Pumps (expression level change, p < 0.05): ABC-transporter pumps with significantly down-regulated RNA expressions (MALME-3M cells [2]): ABCB1
ABCB1 RNA level in response to drug (SK-MEL-28 cells [3]; [13]): Significant upregulation
ABCB5 RNA level in response to drug (SK-MEL-28 cells [3]; [13]): significantly upregulated
ABCG1 RNA level in response to drug (SK-MEL-28 cells [3]; [13]): surged
Efflux Pumps (expression level change, p < 0.05): ABC-transporter pumps with significantly down-regulated RNA expressions (SK-MEL-28 cells [3]): ABCB1, ABCB5, ABCB8, ABCG1
Efflux Pumps (expression level change, p < 0.05): ABC-transporter pumps with significantly down-regulated RNA expressions (MDA-MB-435 cells [4]): ABCB1, ABCB8, ABCC2, ABCG1,; also recorded: ABCG2
ABCB1 RNA level in response to drug (MDA-MB-435 cells [5]): Significant upregulation
ABCC2 RNA level in response to drug (MDA-MB-435 cells [5]): significantly increased
ABCG1 RNA level in response to drug (MDA-MB-435 cells [5]): surged
ABCG2 RNA level in response to drug (MDA-MB-435 cells [5]): significantly upregulated
ABCB5 RNA expression on drug exposure in presence of GH (SK-MEL-5 cells [6]; [12]): increase
ABCB8 RNA expression on drug exposure in presence of GH (SK-MEL-5 cells [6]; [12]): increase
ABCG2 RNA expression on drug exposure in presence of GH (SK-MEL-5 cells [6]; [12]): increase
EC50 (four melanoma cell lines): 3000 to 15000 nM

COc1cccc2c1C(=O)c1c(O)c3c(c(O)c1C2=O)C[C@@](O)(C(=O)CO)C[C@@H]3O[C@H]1C[C@H](N)[C@H](O)[C@H](C)O1 [doxorubicin]
Efflux Pumps (expression level change, p < 0.05): ABC-transporter pumps with significantly down-regulated RNA expressions (SK-MEL-5 cells [1]): ABCB1, ABCB8, ABCG2
ABCC2 RNA expression on drug exposure in presence of GH (MALME-3M cells [2]; [12]): increase
ABCG1 RNA expression on drug exposure in presence of GH (MALME-3M cells [2]; [12]): increase
ABCB8 RNA level in response to drug (MALME-3M cells [2]; [13]): significant upregulation
ABCG1 RNA level in response to drug (MALME-3M cells [2]; [13]): surged
Efflux Pumps (expression level change, p < 0.05): ABC-transporter pumps with significantly down-regulated RNA expressions (MALME-3M cells [2]): ABCB8, ABCC1, ABCG1, ABCG2
ABCB1 RNA expression on drug exposure in presence of GH (SK-MEL-28 cells [3]; [12]): upregulation
ABCB8 RNA expression on drug exposure in presence of GH (SK-MEL-28 cells [3]; [12]): upregulation
ABCB5 RNA level in response to drug (SK-MEL-28 cells [3]; [13]): significantly upregulated
ABCG1 RNA level in response to drug (SK-MEL-28 cells [3]; [13]): surged
ABCG2 RNA level in response to drug (SK-MEL-28 cells [3]; [13]): significantly upregulated
Efflux Pumps (expression level change, p < 0.05): ABC-transporter pumps with significantly down-regulated RNA expressions (SK-MEL-28 cells [3]): ABCB8, ABCC1, ABCG1, ABCG2
Efflux Pumps (expression level change, p < 0.05): ABC-transporter pumps with significantly down-regulated RNA expressions (MDA-MB-435 cells [4]): ABCB1, ABCB5, ABCC2, ABCG1
ABCB5 RNA level in response to drug (MDA-MB-435 cells [5]): significantly upregulated
ABCB8 RNA level in response to drug (MDA-MB-435 cells [5]): significant upregulation
EC50 (SK-MEL-28 cells [7]): 188 nM
rise in ABCB1 RNA (SK-MEL-28 cells [8]; 12-hr): 4 fold
rise in ABCG1 RNA (SK-MEL-28 cells [8]; 12-hr): 8 fold
transcript levels of CDH2, VIM and SNAI1 (SK-MEL-28 cells [8]; 12-hr after addition): increased significantly
GER levels (RNA) (SK-MEL-28 cells [8]; by 24-hr): concomitant rise
rise in autocrine GH transcript (SK-MEL-28 cells [8]; by 24-hr): > 2 fold
RNA levels of ABCB8, ABCC1 and ABCC4 drug efflux pumps (SK-MEL-28 cells [8]; end of 24 hr): significantly higher levels
increase in CDH2 transcript (SK-MEL-28 cells [8]; end of 24 hr): > 3.5 fold
increase in SNAI1 transcript (SK-MEL-28 cells [8]; end of 24 hr): > 2 fold
reduction in the epithelial marker CDH1/E-cadherin (SK-MEL-28 cells [8]; end of 24 hr): > 8 fold
ABCB5 RNA expression on drug exposure in presence of GH (SK-MEL-5 cells [6]; [12]): increase
ABCB8 RNA level in response to drug (SK-MEL-5 cells [6]; [13]): significant upregulation
ABCG2 RNA level in response to drug (SK-MEL-5 cells [6]; [13]): significantly upregulated
EC50 (four melanoma cell lines; Homo sapiens): 25 to 100 nM

C=C1C(=O)[C@]23[C@H](O)[C@H]1CC[C@H]2[C@@]12CO[C@]3(O)[C@@H](O)[C@@H]1C(C)(C)CC[C@@H]2O [oridonin]
EC50 (four melanoma cell lines; Homo sapiens): 2000 to 8000 nM

CC(=O)O[C@H]1C(=O)[C@@]2(C)[C@H]([C@H](OC(=O)c3ccccc3)[C@]3(O)C[C@H](OC(=O)[C@H](O)[C@@H](NC(=O)c4ccccc4)c4ccccc4)C(C)=C1C3(C)C)[C@]1(OC(C)=O)CO[C@@H]1C[C@@H]2O [paclitaxel, Paclitaxel]
Efflux Pumps (expression level change, p < 0.05): ABC-transporter pumps with significantly down-regulated RNA expressions (SK-MEL-5 cells [1]): ABCB8, ABCC1, ABCC2
ABCB8 RNA level in response to drug (MALME-3M cells [2]; [13]): significant upregulation
ABCC2 RNA level in response to drug (MALME-3M cells [2]; [13]): significantly increased
Efflux Pumps (expression level change, p < 0.05): ABC-transporter pumps with significantly down-regulated RNA expressions (MALME-3M cells [2]): ABCB8, ABCC1, ABCG1
ABCG2 RNA expression on drug exposure in presence of GH (SK-MEL-28 cells [3]; [12]): upregulation
ABCB5 RNA level in response to drug (SK-MEL-28 cells [3]; [13]): significantly upregulated
ABCC1 RNA level in response to drug (SK-MEL-28 cells [3]; [13]): particularly upregulated
ABCC2 RNA level in response to drug (SK-MEL-28 cells [3]; [13]): significantly increased
ABCG1 RNA level in response to drug (SK-MEL-28 cells [3]; [13]): surged
ABCG2 RNA level in response to drug (SK-MEL-28 cells [3]; [13]): significantly upregulated
Efflux Pumps (expression level change, p < 0.05): ABC-transporter pumps with significantly down-regulated RNA expressions (SK-MEL-28 cells [3]): ABCB5, ABCC1, ABCG1, ABCG2
Efflux Pumps (expression level change, p < 0.05): ABC-transporter pumps with significantly down-regulated RNA expressions (MDA-MB-435 cells [4]): ABCB5, ABCB8, ABCG1, ABCG2
inhibition at 0.005 µM (SK-MEL-28 cells [9]): > 90%
ABCG1 RNA level in response to drug (MDA-MB-435 cells [5]): surged
ABCB5 RNA expression on drug exposure in presence of GH (SK-MEL-5 cells [6]; [12]): increase
ABCB8 RNA level in response to drug (SK-MEL-5 cells [6]; [13]): significant upregulation
ABCC1 RNA level in response to drug (SK-MEL-5 cells [6]; [13]): particularly upregulated
ABCC2 RNA level in response to drug (SK-MEL-5 cells [6]; [13]): significantly increased
inhibition at 0.005 µM (MALME-3M cells [10]): > 90%
EC50 (four melanoma cell lines; Homo sapiens): 2 to 8 nM

CCCS(=O)(=O)Nc1ccc(F)c(C(=O)c2c[nH]c3ncc(-c4ccc(Cl)cc4)cc23)c1F [vemurafenib]
EC50 (four melanoma cell lines; Homo sapiens): 2 to 20 nM

B1: bGH: growth hormone (bGH) added at 50 or 500 ng/mL to B16F10 mouse melanoma cells (protein, UniProt P01246 27-217, looked up)
Somatotropin: AFPAMSLSGLFANAVLRAQHLHQLAADTFKEFERTYIPEGQRYSIQNTQVAFCFSETIPAPTGKNEAQQKSDLELLRISLLLIQSWLGPLQFLSRVFTNSLVFGTSDRVYEKLKDLEEGILALMRELEDGTPRAGQILKQTYDKFDTNMRSDDALLKNYGLLSCFRKDLHKTETYLRVMKCRRFGEASCAF
RNA expression of Abcb1, Abcg1 and Abcg2 ([11]; 50 and 500 ng/mL bGH, 24, 48, and 72 hr): significantly higher RNA expression
levels of Abcb8, Abcc1, Abcc2, and Abcc4 vs untreated controls ([11]; any dose or time-point in vitro): not significantly different
